Assay [1] relates to Mus musculus. Put plainly: compound was tested for antagonistic activity against 5-Hydroxytryptamine-induced head shake in mouse after intraperitoneal administration; Value ranges from 0.35-0.77. It counts as functional. The conditions noted are these: ip, read-out: ID50 (the source's name).
The subject of assay [2] is Rattus norvegicus. In words: compound was tested for antagonistic activity against fenfluramine induced hyperthermia in rat after peroral administration; Value ranges from 0.1-1.3. The format is functional. To be noted: po, read-out: ID50 (the source's name).
For assay [3], the system named is Mus musculus. Put plainly: Antagonistic activity test against 5-Hydroxytryptamine-induced head shake in mouse after intraperitoneal administration. It counts as functional. The conditions noted are these: ip, read-out: ID50 (the source's name).
For assay [4], the system named is Rattus norvegicus. Put plainly: Antagonistic activity against fenfluramine induced hyperthermia in rat after peroral administration. The format is functional. The conditions noted are these: po, read-out: ID50 (the source's name).
In assay [5] the test system is Mus musculus. In words: compound was tested for antagonistic activity against 5-Hydroxytryptamine-induced head shake in mouse after intraperitoneal administration; NA denotes not active. It counts as functional, organism-based.
For assay [6], the system named is Rattus norvegicus. In words: compound was tested for antagonistic activity against fenfluramine induced hyperthermia in rat after peroral administration at 50 mg/kg; NA denotes not active. The format is functional, organism-based. More on the design: dose 50 mg/kg.
Assay [7] concerns Mus musculus. In words: compound was tested for antagonistic activity against 5-Hydroxytryptamine-induced head shake in mouse after intraperitoneal administration; Value ranges from 1.0-2.5. To be noted: ip, read-out: ID50 (the source's name). The format is functional.
For assay [8], the system named is Rattus norvegicus. In words: compound was tested for antagonistic activity against fenfluramine induced hyperthermia in rat after peroral administration; Value ranges from 0.3-4.3. The format is functional. The conditions noted are these: po, read-out: ID50 (the source's name).
The test system of assay [9] is Rattus norvegicus. In words: compound was tested for antagonistic activity against fenfluramine induced hyperthermia in rat after peroral administration 0.02-0.3. The format is functional. To be noted: po, read-out: ID50 (the source's name).
Assay [10] deals with Mus musculus. In words: compound was tested for antagonistic activity against 5-Hydroxytryptamine-induced head shake in mouse after intraperitoneal administration; Value ranges from 0.02-0.9. To be noted: ip, read-out: ID50 (the source's name). It counts as functional.
For assay [11], the system named is Rattus norvegicus. In words: compound was tested for antagonistic activity against fenfluramine induced hyperthermia in rat after peroral administration at a dose of 50 mg/kg; NA denotes not active. The format is functional, organism-based. On the set-up: dose 50 mg/kg.

The structures appear in SMILES notation. Calls of active or inactive are those of the source. The rule behind the calls is not given here.

For the molecule `CC[C@@H](CO)NC(=O)[C@@H]1C=C2c3cccc4c3c(cn4C)C[C@H]2N(C)C1` [METHYSERGIDE], the ED50 in assay [1] is 0.52 mg/kg; in [2] it was 0.4 mg/kg.

Consider `CN(C)CCSc1nc2ccccc2cc1-c1ccsc1.O=C(O)C(=O)O`, for which the ED50 in assay [3] is 3.4 mg/kg; in assay [4] it was 7.9 mg/kg.

On to `Cc1cccc2cc(-c3ccccc3)c(SCCN(C)C)nc12`, for which the ID50 result in assay [5] and in [6] was “inactive” throughout.

As for `CC(C)c1cc2ccccc2nc1SCCN(C)C.Cl`, the ED50 amounted to 2.6 mg/kg in assay [3] and 2.7 mg/kg in assay [4].

In the case of `CN(C)CCSc1nc2ccccc2cc1C1CC1.O=C(O)C(=O)O`, the ED50 in [3] is 3.4 mg/kg; in [4], 25 mg/kg.

For the molecule `CN(C)CCSc1nc2ccccc2c(C(N)=O)c1-c1ccccc1`, the ID50 result in assay [5] and in assay [6] was “inactive” in each case.

Consider `CCCOc1ccc(-c2cc3ccccc3nc2SCCN(C)C)cc1.Cl`, for which the results for the ED50 in [3] and in assay [4] were 0.5 mg/kg and 5.3 mg/kg, respectively.

With `CCN(CC)CCSc1nc2ccccc2cc1-c1ccccc1.Cl`, the values for the ED50 in [3] and in [4] were 25 mg/kg and 50 mg/kg, respectively.

Regarding `CN(C)CCSc1nc2ccccc2cc1-c1ccccc1.Cl`, the figures for the ED50 in [7] and in [8] were 1.6 mg/kg and 1.2 mg/kg, respectively.

Regarding `CSc1ccc2cc(-c3ccccc3)c(SCCN(C)C)nc2c1`, in assay [5], the ID50 result was “inactive”. Moreover, the ED50 in assay [4] came to 50 mg/kg.

In the case of `COc1ccccc1-c1c(SCCN(C)C)nc2ccccc2c1C.O=C(O)C(=O)O`, the ED50 in [3] and in assay [4] was 50 mg/kg throughout.

For `O=C(c1ccc(F)cc1)C1CCN(CCn2c(=O)[nH]c3ccccc3c2=O)CC1` [KETANSERIN], the ED50 in assay [9] is 0.1 mg/kg; in [10] it was 0.5 mg/kg.

As for `CN(C)CCSc1nc2ccccc2cc1-c1cccs1.O=C(O)C(=O)O`, the ED50 worked out at 4.9 mg/kg in [3] and 6.9 mg/kg in [4].

Turning to `CN(C)CCSc1nc2ccccc2cc1-c1ccc(Br)cc1.Cl`, the ED50 in [3] was 19.1 mg/kg; in [4], 50 mg/kg.

With `Cc1c(-c2ccc(F)cc2)c(SCCN(C)C)nc2ccccc12.O=C(O)C(=O)O`, the figures for the ED50 in assay [3] and in [4] were 50 mg/kg and 11.1 mg/kg, respectively.

As for `CN(C)CCSc1nc2ccc(Cl)cc2cc1-c1ccccc1.O=C(O)C(=O)O`, the ED50 in assay [3] and in [4] was 50 mg/kg each time.

In the case of `CN(C)CCSc1nc2ccccc2cc1-c1ccc(O)cc1.Cl`, the ED50 in [3] worked out at 7.9 mg/kg; in assay [4] it was 50 mg/kg.

On to `COc1ccc2cc(-c3ccccc3)c(SCCN(C)C)nc2c1.Cl`, for which the ED50 in assay [3] worked out at 50 mg/kg; in [4], 3.1 mg/kg.

With `CN(C)CCSc1nc2ccccc2cc1C1CCCCC1.Cl`, the ED50 in assay [3] and in assay [4] was 50 mg/kg throughout.

Consider `Cc1c(-c2ccccc2)c(SCCN(C)C)nc2ccccc12.O=C(O)C(=O)O`, for which the ED50 in assay [3] stood at 6.2 mg/kg; in [4], 50 mg/kg.

Regarding `COc1ccc(OC)c(-c2cc3ccccc3nc2SCCN(C)C)c1.Cl`, the results for the ED50 in assay [3] and in assay [4] were 3 mg/kg and 4.2 mg/kg, respectively.

As for `CN(C)CCSc1nc2ccc(Br)cc2cc1-c1ccccc1.O=C(O)C(=O)O`, the ED50 in [3] came to 50 mg/kg; in assay [4] it was 6.7 mg/kg.

Turning to `CCN(C)CCSc1nc2ccccc2cc1-c1ccccc1.O=C(O)C(=O)O`, the ED50 in assay [3] came to 50 mg/kg.

On to `Cc1ccc(-c2cc3ccccc3nc2SCCN(C)C)cc1.Cl`, for which the ED50 was 1.9 mg/kg in [3] and 4.2 mg/kg in [4].

Take `COc1c(-c2ccccc2C)c(SCCN(C)C)nc2ccccc12.Cl`: the ED50 amounted to 50 mg/kg in assay [3] and 7.2 mg/kg in assay [4].

For `CN(C)CCSc1nc2ccccc2cc1Cc1ccccc1.Cl`, the ID50 result in [6] was “inactive”. Besides, in [3], the ED50 came out at 50 mg/kg.

As to `CN(C)CCSc1nc2ccccc2cc1C1CCCC1.O=C(O)C(=O)O`, the ID50 result in assay [6] was “inactive”. The ED50 in assay [3] was 50 mg/kg.

Consider `Cl.NCCSc1nc2ccccc2cc1-c1ccccc1`, for which the results for the ED50 in assay [3] and in assay [4] were 50 mg/kg and 4.8 mg/kg, respectively.

In the case of `COc1ccccc1-c1cc2cc(C)ccc2nc1SCCN(C)C.O=C(O)C(=O)O`, the ED50 in assay [3] and in assay [4] was 50 mg/kg in each case.

In the case of `CN(C)CCSc1nc2ccccc2cc1-c1ccc(C(F)(F)F)cc1.Cl`, the ID50 result in assay [11] was “inactive”. Besides, in [3], the ED50 stood at 50 mg/kg.

For the molecule `Cc1cccc(-c2cc3ccccc3nc2SCCN(C)C)c1.Cl`, the ED50 in [3] was determined as 1.7 mg/kg; in [4], 5.9 mg/kg.

These data come from ChEMBL document CHEMBL1123565, “Synthesis and 5-hydroxytryptamine antagonist activity of 2-[[2-(dimethylamino)ethyl]thio]-3-phenylquinoline and its analogues” (J Med Chem, 1987).
